Reference: paper PMC7377239, “Cardiovascular Effects of Polychlorinated Biphenyls and Their Major Metabolites” (Environmental Health Perspectives, 2020)
Structures can show the parent of a compound that is named as a salt. Where two headings read alike, the source gives them in different places.

Test system: HUVECs
Experiment: Tube formation (tubulogenesis) assay in HUVECs, 18 h
Type: cell-based, human
Conditions: Homo sapiens, HUVEC, 18 h
Procedure, shortened: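 HUVECs (passage 1–5) seeded on reduced-growth-factor basement membrane and exposed to compounds overnight at 37°C, 5% CO2, in 2× maintenance medium with 12.5 ng/mL VEGF; 0.5% DMSO vehicle. Calcein AM-stained tube networks imaged and analysed; vehicle-normalized readouts fit to four-parameter logistic, POD set at one SD of vehicle means.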

[1] = tube formation mtl, read-out: POD huvec.mtl.18hr
[2] = tube formation tlps, read-out: POD huvec.tlps.18hr
[3] = tube formation tta, read-out: POD huvec.tta.18hr
[4] = tube formation ttl, read-out: POD huvec.ttl.18hr
[5] = HUVECs, 0.01 µM, 0.00 µM = 100.00, read-out: huvec.mtl.18hr
[6] = HUVECs, 0.01 µM, 0.00 µM = 100.00, read-out: huvec.tlps.18hr
[7] = HUVECs, 0.01 µM, 0.00 µM = 100.00, read-out: huvec.tta.18hr
[8] = HUVECs, 0.01 µM, 0.00 µM = 100.00, read-out: huvec.ttl.18hr
[9] = HUVECs, 0.10 µM, 0.00 µM = 100.00, read-out: huvec.mtl.18hr
[10] = HUVECs, 0.10 µM, 0.00 µM = 100.00, read-out: huvec.tlps.18hr
[11] = HUVECs, 0.10 µM, 0.00 µM = 100.00, read-out: huvec.tta.18hr
[12] = HUVECs, 0.10 µM, 0.00 µM = 100.00, read-out: huvec.ttl.18hr
[13] = HUVECs, 1.00 µM, 0.00 µM = 100.00, read-out: huvec.mtl.18hr
[14] = HUVECs, 1.00 µM, 0.00 µM = 100.00, read-out: huvec.tlps.18hr
[15] = HUVECs, 1.00 µM, 0.00 µM = 100.00, read-out: huvec.tta.18hr
[16] = HUVECs, 1.00 µM, 0.00 µM = 100.00, read-out: huvec.ttl.18hr
[17] = HUVECs, 10.00 µM, 0.00 µM = 100.00, read-out: huvec.mtl.18hr
[18] = HUVECs, 10.00 µM, 0.00 µM = 100.00, read-out: huvec.tlps.18hr
[19] = HUVECs, 10.00 µM, 0.00 µM = 100.00, read-out: huvec.tta.18hr
[20] = HUVECs, 10.00 µM, 0.00 µM = 100.00, read-out: huvec.ttl.18hr
[21] = HUVECs, 100.00 µM, 0.00 µM = 100.00, read-out: huvec.mtl.18hr
[22] = HUVECs, 100.00 µM, 0.00 µM = 100.00, read-out: huvec.tlps.18hr
[23] = HUVECs, 100.00 µM, 0.00 µM = 100.00, read-out: huvec.tta.18hr
[24] = HUVECs, 100.00 µM, 0.00 µM = 100.00, read-out: huvec.ttl.18hr
[25] = HUVECs, top concentration 100.00 µM, read-out: huvec.mtl.18hr POD
[26] = HUVECs, top concentration 100.00 µM, read-out: huvec.tlps.18hr POD
[27] = HUVECs, top concentration 100.00 µM, read-out: huvec.tta.18hr POD
[28] = HUVECs, top concentration 100.00 µM, read-out: huvec.ttl.18hr POD

COc1cc(Cl)c(-c2cc(Cl)ccc2Cl)cc1Cl [4-OMe PCB52]
minimal effective concentration (HUVECs tube formation, MAX 100.00, read-out: huvec.mtl.18hr POD): 17.1 µM
minimal effective concentration (HUVECs tube formation, MAX 100.00, read-out: huvec.tlps.18hr POD): 14.2 µM
minimal effective concentration (HUVECs tube formation, MAX 100.00, read-out: huvec.tta.18hr POD): 100 µM
minimal effective concentration (HUVECs tube formation, MAX 100.00, read-out: huvec.ttl.18hr POD): 100 µM
activity at 0.01 µM (HUVECs tube formation, concentration 0.01 µM, 0.00 µM = 100.00, read-out: huvec.mtl.18hr): 105%
activity at 0.01 µM (HUVECs tube formation, concentration 0.01 µM, 0.00 µM = 100.00, read-out: huvec.tlps.18hr): 93.8%
activity at 0.01 µM (HUVECs tube formation, concentration 0.01 µM, 0.00 µM = 100.00, read-out: huvec.tta.18hr): 98.5%
activity at 0.01 µM (HUVECs tube formation, concentration 0.01 µM, 0.00 µM = 100.00, read-out: huvec.ttl.18hr): 87.4%
activity at 0.1 µM (HUVECs tube formation, concentration 0.10 µM, 0.00 µM = 100.00, read-out: huvec.mtl.18hr): 95.6%
activity at 0.1 µM (HUVECs tube formation, concentration 0.10 µM, 0.00 µM = 100.00, read-out: huvec.tlps.18hr): 86.8%
activity at 0.1 µM (HUVECs tube formation, concentration 0.10 µM, 0.00 µM = 100.00, read-out: huvec.tta.18hr): 80.4%
activity at 0.1 µM (HUVECs tube formation, concentration 0.10 µM, 0.00 µM = 100.00, read-out: huvec.ttl.18hr): 70.5%
activity at 1 µM (HUVECs tube formation, concentration 1.00 µM, 0.00 µM = 100.00, read-out: huvec.mtl.18hr): 109%
activity at 1 µM (HUVECs tube formation, concentration 1.00 µM, 0.00 µM = 100.00, read-out: huvec.tlps.18hr): 140%
activity at 1 µM (HUVECs tube formation, concentration 1.00 µM, 0.00 µM = 100.00, read-out: huvec.tta.18hr): 102%
activity at 1 µM (HUVECs tube formation, concentration 1.00 µM, 0.00 µM = 100.00, read-out: huvec.ttl.18hr): 93.9%
activity at 10 µM (HUVECs tube formation, concentration 10.00 µM, 0.00 µM = 100.00, read-out: huvec.mtl.18hr): 94.7%
activity at 10 µM (HUVECs tube formation, concentration 10.00 µM, 0.00 µM = 100.00, read-out: huvec.tlps.18hr): 81.4%
activity at 10 µM (HUVECs tube formation, concentration 10.00 µM, 0.00 µM = 100.00, read-out: huvec.tta.18hr): 92.9%
activity at 10 µM (HUVECs tube formation, concentration 10.00 µM, 0.00 µM = 100.00, read-out: huvec.ttl.18hr): 84.8%
activity at 100 µM (HUVECs tube formation, concentration 100.00 µM, 0.00 µM = 100.00, read-out: huvec.mtl.18hr): 59.2%
activity at 100 µM (HUVECs tube formation, concentration 100.00 µM, 0.00 µM = 100.00, read-out: huvec.tlps.18hr): 42.6%
activity at 100 µM (HUVECs tube formation, concentration 100.00 µM, 0.00 µM = 100.00, read-out: huvec.tta.18hr): 75.1%
activity at 100 µM (HUVECs tube formation, concentration 100.00 µM, 0.00 µM = 100.00, read-out: huvec.ttl.18hr): 67.4%

COc1ccc(-c2cccc(Cl)c2)cc1Cl [4-OMe-PCB 11, 4-methoxy-3,3′-dichlorobiphenyl]
minimal effective concentration [1]: 9.33 µM
minimal effective concentration [2]: 25.8 µM
minimal effective concentration [3]: 100 µM
minimal effective concentration [4]: 1.22 µM

COc1cc(Cl)c(-c2cc(Cl)ccc2Cl)cc1Cl [4-OMe-PCB 52, 4-methoxy-2,2′,5,5′-tetrachlorobiphenyl]
minimal effective concentration [1]: 17.1 µM
minimal effective concentration [2]: 14.2 µM
minimal effective concentration [3]: 100 µM
minimal effective concentration [4]: 100 µM

O=S(=O)(O)Oc1ccc(-c2cccc(Cl)c2)cc1Cl [4-PCB 11 sulfate]
minimal effective concentration [1]: 14.3 µM
minimal effective concentration [2]: 27.2 µM
minimal effective concentration [3]: 100 µM
minimal effective concentration [4]: 100 µM

O=S(=O)(O)Oc1cc(Cl)c(-c2cc(Cl)ccc2Cl)cc1Cl [4-PCB 52 sulfate]
minimal effective concentration [1]: 14.6 µM
minimal effective concentration [2]: 10.1 µM
minimal effective concentration [3]: 100 µM
minimal effective concentration [4]: 100 µM

O=S(=O)(O)Oc1ccc(-c2cccc(Cl)c2)cc1Cl [4-yl PCB 11 sulfate]
activity at 0.01 µM [5]: 96.8%
activity at 0.01 µM [6]: 110%
activity at 0.01 µM [7]: 98.3%
activity at 0.01 µM [8]: 87.1%
activity at 0.1 µM [9]: 112%
activity at 0.1 µM [10]: 133%
activity at 0.1 µM [11]: 109%
activity at 0.1 µM [12]: 98.7%
activity at 1 µM [13]: 108%
activity at 1 µM [14]: 110%
activity at 1 µM [15]: 123%
activity at 1 µM [16]: 113%
activity at 10 µM [17]: 95%
activity at 10 µM [18]: 103%
activity at 10 µM [19]: 84.6%
activity at 10 µM [20]: 77%
activity at 100 µM [21]: 52.2%
activity at 100 µM [22]: 35.8%
activity at 100 µM [23]: 50.9%
activity at 100 µM [24]: 56.1%
minimal effective concentration [25]: 14.3 µM
minimal effective concentration [26]: 27.2 µM
minimal effective concentration [27]: 100 µM
minimal effective concentration [28]: 100 µM

O=S(=O)(O)Oc1cc(Cl)c(-c2cc(Cl)ccc2Cl)cc1Cl [4-yl PCB 52 sulfate]
activity at 0.01 µM [5]: 91.2%
activity at 0.01 µM [6]: 86.7%
activity at 0.01 µM [7]: 66.3%
activity at 0.01 µM [8]: 59.7%
activity at 0.1 µM [9]: 103%
activity at 0.1 µM [10]: 108%
activity at 0.1 µM [11]: 99.9%
activity at 0.1 µM [12]: 89.7%
activity at 1 µM [13]: 99%
activity at 1 µM [14]: 111%
activity at 1 µM [15]: 97.7%
activity at 1 µM [16]: 87.2%
activity at 10 µM [17]: 93.2%
activity at 10 µM [18]: 84.7%
activity at 10 µM [19]: 79.1%
activity at 10 µM [20]: 70.9%
activity at 100 µM [21]: 61.8%
activity at 100 µM [22]: 26.3%
activity at 100 µM [23]: 85.2%
activity at 100 µM [24]: 94.3%
minimal effective concentration [25]: 14.6 µM
minimal effective concentration [26]: 10.1 µM
minimal effective concentration [27]: 100 µM
minimal effective concentration [28]: 100 µM

Oc1cc(Cl)cc(-c2cccc(Cl)c2)c1 [5-OH PCB 11]
activity at 0.01 µM [5]: 117%
activity at 0.01 µM [6]: 148%
activity at 0.01 µM [7]: 116%
activity at 0.01 µM [8]: 106%
activity at 0.1 µM [9]: 121%
activity at 0.1 µM [10]: 186%
activity at 0.1 µM [11]: 123%
activity at 0.1 µM [12]: 106%
activity at 1 µM [13]: 103%
activity at 1 µM [14]: 111%
activity at 1 µM [15]: 113%
activity at 1 µM [16]: 104%
activity at 10 µM [17]: 81.1%
activity at 10 µM [18]: 102%
activity at 10 µM [19]: 76.5%
activity at 10 µM [20]: 67.6%
activity at 100 µM [21]: 63%
activity at 100 µM [22]: 38.8%
activity at 100 µM [23]: 111%
activity at 100 µM [24]: 94.6%
minimal effective concentration [25]: 6.98 µM
minimal effective concentration [26]: 100 µM
minimal effective concentration [27]: 100 µM
minimal effective concentration [28]: 32.7 µM

Oc1cc(Cl)cc(-c2cccc(Cl)c2)c1 [5-OH-PCB 11]
minimal effective concentration [1]: 6.98 µM
minimal effective concentration [2]: 100 µM
minimal effective concentration [3]: 100 µM
minimal effective concentration [4]: 32.7 µM
